Assay results: publication PMC6152277, “Synthesis and Evaluation of New Quinoxaline Derivatives of Dehydroabietic Acid as Potential Antitumor Agents” (Molecules : A Journal of Synthetic Chemistry and Natural …, 2017)

Tests used:
SMMC-7721 cells [1] = experiment: Annexin V-FITC/PI dual staining assay; type: cell-based, human
Source text: The apoptotic effect of compound 4b was further evaluated by a Annexin V-FITC/propidium iodide (AV/PI) dual staining assay to examine the occurrence of phosphatidylserine externalization, which facilitated the detection of live cells (lower left quadrant; AV−/PI−), early apoptotic cells (lower right quadrant; AV+/PI−), late apoptotic cells (upper right quadrant; AV+/PI+) and necrotic cells (upper left quadrant; AV−/PI+).
Apoptosis was discriminated with the Annexin V-FITC/PI dual staining assay. SMMC-7721 cells were seeded at 1 × 10^5 cells per well in 10% fetal calf serum (FBS)-DMEM into six-well plates, and treated with compound 4b for 24 h. The cells were washed twice with cold PBS and then resuspended in 1 × binding buffer (0.1 M Hepes/NaOH (pH 7.4), 1.4 M NaCl, 25 mM CaCl2) at a concentration of 1 × 10^6 cells/mL. The solution (100 μL) was transferred to 5 mL culture tubes, and 5 μL of Annexin V-FITC (BD, Pharmingen) and 5 μL of PI were added to each tube. The cells were gently vortexed, and incubated for 30 min at 25 °C in the dark. PBS (200 μL) was added to each tube. The analysis was performed on a flow cytometry (Becton-Dickinson FACSCalibur, New York, NY, USA).

[2] = tested on: human cervical carcinoma cell line (HeLa); experiment: MTT cytotoxic assay, HeLa; type: cell-based; settings: 48 h exposure
Description: (§1) All the compounds (1–3, 4a–o) were evaluated for their in vitro cytotoxic activity against three cancer cell lines including human breast cancer cell line (MCF-7), human hepatocarcinoma cell line (SMMC-7721), human cervical carcinoma cell line (HeLa), and a noncancerous human hepatocyte cell line (LO2) using the MTT assay method. An anticancer drug etoposide (VP-16) was co-assayed as the positive control. The results of the test compounds shown as IC50 values (concentration required to inhibit tumor cell proliferation by 50%), are listed in Table 1.
(§2) The in vitro cytotoxic activities of the quinoxaline derivatives of DAA were evaluated against a human breast cancer cell line (MCF-7), human hepatocarcinoma cell line (SMMC-7721), human cervical carcinoma cell line (HeLa) and noncancerous human hepatocyte cells (LO2) via the MTT colorimetric method. Briefly, different tumor cells were grown in DMEM supplemented with 10% fetal bovine serum, penicillin (100 U/mL), and streptomycin (50 μg/mL). Cells were harvested at the log phase of growth and seeded in 96-well plates (100 μL/well at a density of 2 × 10^5 cells/mL). After 24 h of incubation at 37 °C and 5% CO2 to allow for cell attachment, cultures were exposed to various concentrations of the isolated compounds for 48 h. Finally, the MTT solution (2.5 mg/mL in PBS) was added (40 μL/well). Plates were further incubated for 4 h at 37 °C, and the formazan crystals formed were dissolved by adding 150 μL/well of DMSO. Absorption at 570 nm was measured with an ELISA plate reader. The results were expressed as IC50 values with standard deviations, which were defined as the concentrations at which a 50% survival of the cells was discerned. Etoposide (VP-16) was co-assayed as the positive control.

[3] = tested on: human hepatocarcinoma cell line (SMMC-7721); experiment: MTT cytotoxic assay, SMMC-7721; type: cell-based; settings: 48 h exposure
Description: as §1, §2

[4] = tested on: noncancerous human hepatocyte cells (LO2); experiment: MTT cytotoxic assay, LO2; type: cell-based; settings: 48 h exposure, noncancerous hepatocytes
Description: as §1, §2

[5] = tested on: human breast cancer cell line (MCF-7); experiment: MTT cytotoxic assay, MCF-7; type: cell-based; settings: MCF7, 48 h exposure
Description: as §1, §2

SMMC-7721 cells [6] = experiment: Cell cycle analysis (PI staining, flow cytometry); type: cell-based, human
Description: Subsequently, to determine the possible role of the cell cycle arrest in cell growth inhibition induced by target compounds, SMMC-7721 cells were treated with different concentrations of compound 4b. The cell cycle distribution was investigated by flow cytometric analysis after staining of DNA with propidium iodide (PI).
SMMC-7721 cells were treated with indicated concentrations of compound 4b. After incubation for 48 h, the cells were washed twice with ice-cold PBS, fixed and permeabilized with ice-cold 70% ethanol at −20 °C overnight. The cells were treated with 100 μg/mL RNase A at 37 °C for 30 min after being washed with ice-cold PBS, and finally stained with 400 μL of 1 mg/mL PI in the dark at 4 °C for 30 min. The samples were then analyzed for their DNA content by flow cytometry (Becton-Dickinson FACSCalibur, New York, NY, USA).

SMMC-7721 cells [7] = experiment: Hoechst 33258 staining assay; type: cell-based, human; settings: SMMC-7721, 0.2, 1.0 and 5.0 μM, 24 h
Description: To investigate the morphological changes induced by compound 4b in SMMC-7721 cells, Hoechst staining was carried out. Hoechst 33258 is a cell membrane permeable dye, which stains the live cells’ nuclei uniformly as light-blue and apoptotic cells’ nuclei as round and bright-blue, on account of karyopyknosis and chromatin condensation. SMMC-7721 cells were treated with various concentrations (0, 0.2, 1.0 and 5.0 μM) of compound 4b for 24 h, and stained with Hoechst 33258.
Cells grown on a sterile cover slip in six-well plates were treated with different concentrations of the test compound for 24 h. The culture medium containing compounds was removed, and the cells were fixed in 4% paraformaldehyde for 10 min. After being washed twice with PBS, the cells were stained with 0.5 mL of Hoechst 33258 (Beyotime, Haimen, China) for 5 min, and then again washed twice with PBS. The stained nuclei were observed under a Nikon ECLIPSETE2000-S fluorescence microscope using 350 nm for excitation and 460 nm for emission.

CCN(CC)Cc1nc2c(Br)cc3c(c2nc1CN(CC)CC)CCC1[C@](C)(C(=O)OC)CCC[C@]31C (stereo partly shown) [Compound 4b, Methyl 12-bromo-2′,3′-bis((diethylamino)methyl)-13,14-pyrazinyldeisopropyl-dehydroabietate]
percentage of early apoptotic cells (AV+/PI−) (SMMC-7721 cells [1]; SMMC-7721, 5.0 μM, 24 h (control 2.84 ± 0.26%)): 17.44 ± 0.68% | percentage of late apoptotic cells (AV+/PI+) (SMMC-7721 cells [1]; SMMC-7721, 5.0 μM, 24 h (control 7.45 ± 0.42%)): 52.36 ± 1.23% | apoptotic cells (early + late) (SMMC-7721 cells [1]; SMMC-7721, 5.0 μM, 24 h (control 10.29%)): 69.80% | induction of apoptosis (Annexin V-FITC/PI) (SMMC-7721 cells [1]; SMMC-7721, 24 h): induce the apoptosis of SMMC-7721 cells in a dose-dependent manner | IC50 [2]: 1080 ± 120 nM | IC50 [3]: 720 ± 90 nM | IC50 [4]: 11100 ± 570 nM | IC50 [5]: 1780 ± 360 nM | cell cycle arrest (SMMC-7721 cells [6]; SMMC-7721, 1.0-10.0 μM, 48 h): arrest SMMC-7721 cells in the G0/G1 stage | G2/M phase cells (SMMC-7721 cells [6]; SMMC-7721, 48 h, end of the range 0-10.0 μM (control 10.42 ± 0.68%)): 18.13 ± 0.13% | S phase cells (SMMC-7721 cells [6]; SMMC-7721, 48 h, end of the range 0-10.0 μM (control 32.24 ± 0.21%)): 8.54 ± 0.57% | G0/G1 phase cells (SMMC-7721 cells [6]; SMMC-7721, 48 h, end of the range 0-10.0 μM (control 57.34 ± 0.48%)): 73.33 ± 0.69% | nuclear morphological changes / apoptosis (Hoechst 33258) (SMMC-7721 cells [7]): induce apoptosis of SMMC-7721 cells in a dose-dependent manner
